{"source": "the supplement of paper PMC11208160", "data": [{"assay": "recombinant barcode read abundance after kanamycin selection (control-corrected) (log10(CPM+1)); higher = more efficient recombination; sequences stand for … in AGTGCAGAGAAAATCGGCCAGTTTTCTCTGCCTGCAGTCCGCATGCCGT…AGATTTATGCAGCGGACTGCCTTTCTCCCAAAGTGATAAACCGGACAGTATCATGGACCGGTTTTCCCGGTAATCCGTATTTGCAAGGTTGGTTTCACT; site = the 11-nt target", "summary_of_the_method": "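Targets were screened in pooled form in E. coli against IS621 bridge RNA target-binding loops. Recombination efficiency is based on barcode counts at recombinant junctions in counts per million, averaged and corrected for the control. Numbers are shown as log10(CPM+1), with duplicate plates on chloramphenicol/ampicillin LB agar (control) or chloramphenicol/ampicillin/kanamycin with 0.1 mM IPTG.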", "values": [{"sequence": "GGTGGGTCTTGGGTTCTAACCTGTTGCCT (site GGTGGGTCTAT)", "recombinant barcode read abundance (log10)": 0.382}, {"sequence": "GGTTCCTCTTGGGTTCTAACCTGTTGCCT (site GGATCGTCTAG)", "recombinant barcode read abundance (log10)": 0.0714}, {"sequence": "GGTTCCTCTTGGGTTCTAACCTGTTGCCT (site GGTTCCTCTAG)", "recombinant barcode read abundance (log10)": 1.11}, {"sequence": "GGTTCTCCTTGGGTTCTAACCTGTTGCCT (site AGTTCTCCTAG)", "recombinant barcode read abundance (log10)": 0.0625}, {"sequence": "GGTTCTCCTTGGGTTCTAACCTGTTGCCT (site CGTTCTCCTAG)", "recombinant barcode read abundance (log10)": 0.0451}, {"sequence": "GGTTCTCCTTGGGTTCTAACCTGTTGCCT (site GGTTCTCCTAG)", "recombinant barcode read abundance (log10)": 0.288}, {"sequence": "GGTTCTCCTTGGGTTCTAACCTGTTGCCT (site TGTTCTCCTAG)", "recombinant barcode read abundance (log10)": 0.0347}, {"sequence": "GGTTCTTCTTGGGTTCTAACCTGTTGCCT (site GATTCTTCTAG)", "recombinant barcode read abundance (log10)": 0.12}, {"sequence": "GGTTCTTCTTGGGTTCTAACCTGTTGCCT (site GCTTCTTCTAG)", "recombinant barcode read abundance (log10)": 0.0288}, {"sequence": "GGTTCTTCTTGGGTTCTAACCTGTTGCCT (site GGTTCTTCTAG)", "recombinant barcode read abundance (log10)": 0.344}, {"sequence": "GGTTCTTCTTGGGTTCTAACCTGTTGCCT (site GTTTCTTCTAG)", "recombinant barcode read abundance (log10)": 0.19}, {"sequence": "GGTTGACCTTGGGTTCTAACCTGTTGCGG (site GGTTGACCTCC)", "recombinant barcode read abundance (log10)": 1.51}, {"sequence": "GGTTGACCTTGGGTTCTAACCTGTTGCGG (site GGTTGCCCTCC)", "recombinant barcode read abundance (log10)": 0.0589}, {"sequence": "GGTTGACCTTGGGTTCTAACCTGTTGCGG (site GGTTGGCCTCC)", "recombinant barcode read abundance (log10)": 0.0632}, {"sequence": "GGTTGACCTTGGGTTCTAACCTGTTGCGG (site GGTTGTCCTCC)", "recombinant barcode read abundance (log10)": 0.0522}, {"sequence": "GGTTGCCCTTGGGTTCTAACCTGTTGCGG (site GGTTGACCTCC)", "recombinant barcode read abundance (log10)": 0.295}, {"sequence": "GGTTGCCCTTGGGTTCTAACCTGTTGCGG (site GGTTGCCCTCC)", "recombinant barcode read abundance (log10)": 0.946}, {"sequence": "GGTTGCCCTTGGGTTCTAACCTGTTGCGG (site GGTTGGCCTCC)", "recombinant barcode read abundance (log10)": 0.0682}, {"sequence": "GGTTGCCCTTGGGTTCTAACCTGTTGCGG (site GGTTGTCCTCC)", "recombinant barcode read abundance (log10)": 0.0903}, {"sequence": "GGTTGTCCTTGGGTTCTAACCTGTTGCCT (site GGTGGTCCTAG)", "recombinant barcode read abundance (log10)": 0.253}, {"sequence": "GGTTGTCCTTGGGTTCTAACCTGTTGCCT (site GGTTGTCCTAG)", "recombinant barcode read abundance (log10)": 0.328}, {"sequence": "GGTTGTCCTTGGGTTCTAACCTGTTGCGG (site GGTTGACCTCC)", "recombinant barcode read abundance (log10)": 0.237}, {"sequence": "GGTTGTCCTTGGGTTCTAACCTGTTGCGG (site GGTTGCCCTCC)", "recombinant barcode read abundance (log10)": 0.0684}, {"sequence": "GGTTGTCCTTGGGTTCTAACCTGTTGCGG (site GGTTGGCCTCC)", "recombinant barcode read abundance (log10)": 0.109}, {"sequence": "GGTTGTCCTTGGGTTCTAACCTGTTGCGG (site GGTTGTCCTCC)", "recombinant barcode read abundance (log10)": 1.2}, {"sequence": "GGTTGTCCTTGGGTTCTAACCTGTTGCTA (site GATTGTCCTAA)", "recombinant barcode read abundance (log10)": 0.182}, {"sequence": "GGTTGTCCTTGGGTTCTAACCTGTTGCTA (site GGTTGTCCTTA)", "recombinant barcode read abundance (log10)": 0.181}, {"sequence": "GGTTTAGCTTGGGTTCTAACCTGTTGCTA (site GGTTTAGCTTA)", "recombinant barcode read abundance (log10)": 0.106}, {"sequence": "GGTTTAGCTTGGGTTCTAACCTGTTGCTA (site TGTATAGCTTA)", "recombinant barcode read abundance (log10)": 0.0842}, {"sequence": "GTAAAACCTTGGGTTCTAACCTGTTGCCT (site ATAAAACCTAG)", "recombinant barcode read abundance (log10)": 0.281}, {"sequence": "GTAAAACCTTGGGTTCTAACCTGTTGCCT (site CTAAAACCTAG)", "recombinant barcode read abundance (log10)": 0.23}, {"sequence": "GTAAAACCTTGGGTTCTAACCTGTTGCCT (site GTAAAACCTAG)", "recombinant barcode read abundance (log10)": 1.06}, {"sequence": "GTAAAACCTTGGGTTCTAACCTGTTGCCT (site TTAAAACCTAG)", "recombinant barcode read abundance (log10)": 0.266}, {"sequence": "GTAAACCCTTGGGTTCTAACCTGTTGCGG (site GTAAACCCTCC)", "recombinant barcode read abundance (log10)": 2.33}, {"sequence": "GTAAACCCTTGGGTTCTAACCTGTTGCGG (site GTCAACCCTCC)", "recombinant barcode read abundance (log10)": 0.228}, {"sequence": "GTAACGACTTGGGTTCTAACCTGTTGCCA (site GTAACGACTTG)", "recombinant barcode read abundance (log10)": 1.08}, {"sequence": "GTAACGACTTGGGTTCTAACCTGTTGCCA (site GTGAGGACTTG)", "recombinant barcode read abundance (log10)": 0.0765}, {"sequence": "GTAAGTCCTTGGGTTCTAACCTGTTGCAG (site GTAAGAACTCT)", "recombinant barcode read abundance (log10)": 0.0477}, {"sequence": "GTAAGTCCTTGGGTTCTAACCTGTTGCAG (site GTAAGTCCTCT)", "recombinant barcode read abundance (log10)": 1.97}, {"sequence": "GTAAGTGCTTGGGTTCTAACCTGTTGCAT (site ACCCAGTCTCC)", "recombinant barcode read abundance (log10)": 0.174}, {"sequence": "GTAAGTGCTTGGGTTCTAACCTGTTGCAT (site GTAAGTGCTAT)", "recombinant barcode read abundance (log10)": 0.829}, {"sequence": "GTAATCCCTTGGGTTCTAACCTGTTGCCA (site GTAATCCCTCG)", "recombinant barcode read abundance (log10)": 0.173}, {"sequence": "GTAATCCCTTGGGTTCTAACCTGTTGCCA (site GTAATCCCTTG)", "recombinant barcode read abundance (log10)": 1.32}, {"sequence": "GTACAGACTTGGGTTCTAACCTGTTGCCT (site GTACAGACTAG)", "recombinant barcode read abundance (log10)": 1.43}, {"sequence": "GTACAGACTTGGGTTCTAACCTGTTGCCT (site GTCCAGACTAG)", "recombinant barcode read abundance (log10)": 0.0588}, {"sequence": "GTACAGACTTGGGTTCTAACCTGTTGCCT (site GTGCAGACTAG)", "recombinant barcode read abundance (log10)": 0.0183}, {"sequence": "GTACAGACTTGGGTTCTAACCTGTTGCCT (site GTTCAGACTAG)", "recombinant barcode read abundance (log10)": 0.078}, {"sequence": "GTACAGGCTTGGGTTCTAACCTGTTGCAG (site GTACAGGCTCT)", "recombinant barcode read abundance (log10)": 0.808}, {"sequence": "GTACAGGCTTGGGTTCTAACCTGTTGCAG (site TGACAGGCTCT)", "recombinant barcode read abundance (log10)": 0.178}, {"sequence": "GTACGCACTTGGGTTCTAACCTGTTGCCT (site AGTTAGTCTCT)", "recombinant barcode read abundance (log10)": 0.0249}, {"sequence": "GTACGCACTTGGGTTCTAACCTGTTGCCT (site GTACGCACTAG)", "recombinant barcode read abundance (log10)": 0.994}, {"sequence": "GTAGTAGCTTGGGTTCTAACCTGTTGCCT (site GTAGTAACTAG)", "recombinant barcode read abundance (log10)": 0.954}, {"sequence": "GTAGTAGCTTGGGTTCTAACCTGTTGCCT (site GTAGTACCTAG)", "recombinant barcode read abundance (log10)": 0.0193}, {"sequence": "GTAGTAGCTTGGGTTCTAACCTGTTGCCT (site GTAGTAGCTAG)", "recombinant barcode read abundance (log10)": 2.06}, {"sequence": "GTAGTAGCTTGGGTTCTAACCTGTTGCCT (site GTAGTATCTAG)", "recombinant barcode read abundance (log10)": 0.492}, {"sequence": "GTAGTATCTTGGGTTCTAACCTGTTGCCT (site GTAGTAACTAG)", "recombinant barcode read abundance (log10)": 0.0297}, {"sequence": "GTAGTATCTTGGGTTCTAACCTGTTGCCT (site GTAGTACCTAG)", "recombinant barcode read abundance (log10)": 0.115}, {"sequence": "GTAGTATCTTGGGTTCTAACCTGTTGCCT (site GTAGTAGCTAG)", "recombinant barcode read abundance (log10)": 0.104}, {"sequence": "GTAGTATCTTGGGTTCTAACCTGTTGCCT (site GTAGTATCTAG)", "recombinant barcode read abundance (log10)": 1.96}, {"sequence": "GTATATACTTGGGTTCTAACCTGTTGCTT (site ACGGGGCCTCG)", "recombinant barcode read abundance (log10)": 0.0368}, {"sequence": "GTATATACTTGGGTTCTAACCTGTTGCTT (site GTATATACTAA)", "recombinant barcode read abundance (log10)": 0.578}, {"sequence": "GTATCATCTTGGGTTCTAACCTGTTGCCT (site GTATCAACTAG)", "recombinant barcode read abundance (log10)": 0.126}, {"sequence": "GTATCATCTTGGGTTCTAACCTGTTGCCT (site GTATCACCTAG)", "recombinant barcode read abundance (log10)": 0.942}, {"sequence": "GTATCATCTTGGGTTCTAACCTGTTGCCT (site GTATCAGCTAG)", "recombinant barcode read abundance (log10)": 0.0191}, {"sequence": "GTATCATCTTGGGTTCTAACCTGTTGCCT (site GTATCATCTAG)", "recombinant barcode read abundance (log10)": 0.52}, {"sequence": "GTATCGTCTTGGGTTCTAACCTGTTGCCT (site GTATCGTCTAG)", "recombinant barcode read abundance (log10)": 1.69}, {"sequence": "GTATCGTCTTGGGTTCTAACCTGTTGCCT (site GTATGGTCTAC)", "recombinant barcode read abundance (log10)": 0.111}, {"sequence": "GTATCTACTTGGGTTCTAACCTGTTGCCT (site GAATCTACTAG)", "recombinant barcode read abundance (log10)": 0}, {"sequence": "GTATCTACTTGGGTTCTAACCTGTTGCCT (site GCATCTACTAG)", "recombinant barcode read abundance (log10)": 0.0197}, {"sequence": "GTATCTACTTGGGTTCTAACCTGTTGCCT (site GGATCTACTAG)", "recombinant barcode read abundance (log10)": 0.25}, {"sequence": "GTATCTACTTGGGTTCTAACCTGTTGCCT (site GTATCTACTAG)", "recombinant barcode read abundance (log10)": 0.069}, {"sequence": "GTATGCCCTTGGGTTCTAACCTGTTGCTA (site GTATCCACTTA)", "recombinant barcode read abundance (log10)": 0.273}, {"sequence": "GTATGCCCTTGGGTTCTAACCTGTTGCTA (site GTATGCCCTTA)", "recombinant barcode read abundance (log10)": 1.12}, {"sequence": "GTATTAGCTTGGGTTCTAACCTGTTGCCG (site GAATTAGCTCC)", "recombinant barcode read abundance (log10)": 0.128}, {"sequence": "GTATTAGCTTGGGTTCTAACCTGTTGCCG (site GTATTAGCTCG)", "recombinant barcode read abundance (log10)": 1.44}, {"sequence": "GTCAAACCTTGGGTTCTAACCTGTTGCTG (site GTCAAACCTCA)", "recombinant barcode read abundance (log10)": 0.974}, {"sequence": "GTCAAACCTTGGGTTCTAACCTGTTGCTG (site GTCAACCCTCA)", "recombinant barcode read abundance (log10)": 0.232}, {"sequence": "GTCAAACCTTGGGTTCTAACCTGTTGCTG (site GTCAAGCCTCA)", "recombinant barcode read abundance (log10)": 0.0163}, {"sequence": "GTCAAACCTTGGGTTCTAACCTGTTGCTG (site GTCAATCCTCA)", "recombinant barcode read abundance (log10)": 0.0782}, {"sequence": "GTCAAGCCTTGGGTTCTAACCTGTTGCTG (site GTCAAACCTCA)", "recombinant barcode read abundance (log10)": 0.0753}, {"sequence": "GTCAAGCCTTGGGTTCTAACCTGTTGCTG (site GTCAACCCTCA)", "recombinant barcode read abundance (log10)": 0.184}, {"sequence": "GTCAAGCCTTGGGTTCTAACCTGTTGCTG (site GTCAAGCCTCA)", "recombinant barcode read abundance (log10)": 1.23}, {"sequence": "GTCAAGCCTTGGGTTCTAACCTGTTGCTG (site GTCAATCCTCA)", "recombinant barcode read abundance (log10)": 0.0295}, {"sequence": "GTCAAGTCTTGGGTTCTAACCTGTTGCTC (site CGACTCCCTAC)", "recombinant barcode read abundance (log10)": 0.101}, {"sequence": "GTCAAGTCTTGGGTTCTAACCTGTTGCTC (site GTCAAGTCTGA)", "recombinant barcode read abundance (log10)": 0.694}, {"sequence": "GTCAATTCTTGGGTTCTAACCTGTTGCCT (site GACACTTCTAG)", "recombinant barcode read abundance (log10)": 0.109}]}]}
